System: thymocytes of surrenalectomized rats
Experiment: Antiglucocorticoidal activity, incorporation of tritiated uridine in thymocytes
Assay type: cell-based
Settings: for inhibition at 1 µM / inhibition at 0.1 µM / inhibition at 0.01 µM: Rattus norvegicus, Thymocyte, read-out: % inhibition of effect of Dexamethasone; for inhibition at 1 µM / % inhibition of effect of Dexamethasone (symbol): 5 × 10^-8 M dexamethasone + test product 10^-6 M; for inhibition at 0.1 µM: 5 × 10^-8 M dexamethasone + test product 10^-7 M; for inhibition at 0.01 µM: 5 × 10^-8 M dexamethasone + test product 10^-8 M
Protocol: III. Antiglucocorticoidal Activity
The test used was that of Dausse et al [Molecular Pharmacology, Vol. 13 (1977), p. 948-955] entitled "The relationship between glucocorticoid structure and effects upon thymocytes" for […] thymocytes. The thymocytes of surrenalectomized rats were incubated at 37° C. for 3 hours in a nutritive medium containing 5×10^-8 M of dexamethasone in the presence or absence of the test compound at different concentrations. Tritiated uridine was added and incubation was continued for one hour. The incubates were cooled and treated with a 5% trifluoroacetic acid solution and the mixture was filtered with Whatman GF/A paper. The filter was washed 3 times with a 5% trifluoroacetic acid solution and retained radioactivity on the filter was determined.

SMILES	inhibition at 1 µM [%]	inhibition at 0.1 µM [%]	inhibition at 0.01 µM [%]	% inhibition of effect of Dexamethasone (symbol)	effect on incorporation of tritiated uridine (in words) (glucocorticoid alone)
CC#C[C@]1(O)CC[C@H]2[C@@H]3CCC4=CC(=O)C(=COC(C)=O)CC4=C3[C@@H](c3ccc(N(C)C)cc3)C[C@@]21C [Example 3, 2-(acetyloxymethylene)-11β-(4-dimethylaminophenyl)-17α-(prop-1-ynyl)-Δ^4,9-estradiene-17β-ol-3-one]	60	0	0		
CC#C[C@]1(O)CC[C@H]2[C@@H]3CCC4=CC(=O)C(=CN5CCOCC5)CC4=C3[C@@H](c3ccc(N(C)C)cc3)C[C@@]21C [Example 4, 2-(4-morpholinylmethylene)-11β-(4-dimethylaminophenyl)-17α-(prop-1-ynyl)-Δ^4,9-estradiene-17β-ol-3-one]	51	0	0		
C/C=C/[C@]1(O)CC[C@H]2[C@@H]3CCC4=C(CCC(=O)C4)[C@H]3[C@@H](c3cccc(OC)c3)C[C@@]21C [6 (17α propenyle), 11β-(3-methoxyphenyl)-17α-(E)-(prop-1-enyl)-Δ^5(10) -estrene-17β-ol-3-one]	56	0	0		
CC#C[C@]1(O)CC[C@H]2[C@@H]3CCC4=Cc5oncc5CC4=C3[C@@H](c3ccc(N(C)C)cc3)C[C@@]21C [Example 7, 11β-(4-dimethylaminophenyl)-17α-(prop-1-ynyl)-isoxazolo[4,5-b]-Δ^4,9-estradiene-17β-ol]		27	0	* (A dose of 10^-6 M inhibited the effect of dexamethasone totally)	
CC#C[C@]1(O)CC[C@H]2[C@@H]3CCC4=C(CCC(=O)C4)[C@H]3[C@@H](c3cccc(OC)c3)C[C@@]21C [Example 6, 11β-(3-methoxyphenyl)-17α-(prop-1-ynyl)-Δ^5(10) -estrene-17β-ol-3-one]	68	0	0		
CC#C[C@]1(O)CC[C@H]2[C@@H]3CCc4cc(O)ccc4[C@H]3[C@@H](c3ccc(N(C)C)cc3)C[C@@]21C [2 (17 OH), 11β-(4-dimethylaminophenyl)-17α-(prop-1-ynyl)-Δ^1,3,5(10) -estratriene-3,17β-diol]		91	41	* (A dose of 10^-6 M inhibited the effect of dexamethasone totally)	
C[C@@H]1C[C@H]2[C@@H]3CCC4=CC(=O)C=C[C@]4(C)[C@@]3(F)[C@@H](O)C[C@]2(C)[C@@]1(O)C(=O)CO [dexamethasone, reference compound]					provoked a lessening of incorporation of tritiated uridine

Reference: patent US5043332A, “Novel 11β-substituted -19-nor-steriods” (priority 1981, dated 1991)
